The source of these data is article PMC10052652 (Molecules, 2023).

The IC50 is the concentration needed to halve the response being measured.

Test [1] concerns MCF7 cells. The experiment in a line: Cytotoxic activity, MTT assay, MCF7. In kind it is cell-based, human. As to conditions: Homo sapiens, MCF7, 72 h. As for the experimental part: Optical density was measured at 540 nm. All tests were established in triplicate.
Test [2] addresses T1, acetylcholinesterase (AChE) (Homo sapiens, UniProt P22303). It is filed as biochemical. Particulars: at 100 µM.
Test [3] in a line: DPPH radical scavenging assay. As for the experimental part:
DPPH• (1-1-diphenyl 2-picryl hydrazyl) assay
This method is based on the spectrophotometric assay using the stable radical, DPPH•, as a reagent. First, 20 µL of each sample (4 mg/mL) was mixed with 180 µL of 0.1 mM DPPH• in methanol, in plates, after an incubation of 25 min in the dark. Absorbance was measured at 517 nm. Ascorbic acid was used as the reference compound. The radical-scavenging activities of molecules, expressed as a percentage inhibition of DPPH•, were calculated according to the following formula: Inhibition (%) = [(A control − A sample)/A control] × 100 where A is the absorbance determined at 517 nm. The absorbance of the solvent and DPPH• radical without the molecule was measured as the control.
On the technique in general: Loss of DPPH colour is used to gauge radical scavenging.

In test [4] the target is T2, superoxide dismutase (SOD) (Homo sapiens, UniProt P00441). Description: biochemical. As to conditions: read-out: Anti SOD IC50. As for the experimental part: Pyrogallol auto-oxidation due to oxygen in the air can be inhibited by an enzyme that is naturally present in the body: superoxide dismutase (SOD). Furthermore, variations in the pyrogallol auto-oxidation rate in the presence of SOD were evaluated. Tests were carried out in triplicate. The objective was to find an inhibitor of the auto-oxidation of pyrogallol in the presence of a SOD enzyme solution. Samples were tested at a concentration of 50 µg/mL, followed by incubation for 4 min at 25 °C. […] The self-oxidation of pyrogallol was evaluated in the absence of the enzyme. For this, 30 µL of pyrogallol was added to 120 µL of tris buffer (in place of the SOD) (pH 8.5), then followed by the same steps of incubating a positive control (without the molecule); this was performed in the presence of 5% of DMSO to evaluate the percentage of SOD inhibition activity on the auto-oxidation of pyrogallol.
T2 sequence (P00441 whole entry): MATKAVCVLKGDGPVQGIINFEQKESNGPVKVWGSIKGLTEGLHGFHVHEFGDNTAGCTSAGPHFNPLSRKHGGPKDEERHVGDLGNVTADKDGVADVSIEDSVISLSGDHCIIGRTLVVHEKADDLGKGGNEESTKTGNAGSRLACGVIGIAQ

Test [5] relates to SKOV-3 cells. The experiment in a line: Cytotoxic activity, MTT assay, SKOV-3. It is filed as cell-based, human. As to conditions: Homo sapiens, SK-OV-3, 72 h, read-out: IC50 SKOV-3, MTT, 72 h. Background: Formazan colour is commonly taken as a measure of viable cells.
Test [6] addresses T3, xanthine oxidase (XOD) (Homo sapiens, UniProt P47989). The experiment in a line: biochemical. Particulars: read-out: Anti XOD IC50. As for the experimental part:
Anti-xanthine oxidase activity was assayed spectrophotometrically under aerobic conditions. First, 50 µL (50 µg/mL) of samples were added to 60 µL of phosphate buffer (pH 7.5) and 30 µL of xanthine oxidase enzyme solution (0.01 units/mL in phosphate buffer; pH 7.5). After pre-incubation at 25 °C for 15 min, the reaction was initiated by the addition of 60 µL of xanthine substrate solution (prepared in the same buffer). The assay mixture was incubated at 25 °C for 5 min. […] The assay was performed in triplicate. […] Tests were carried out in triplicate.

Test [7] has as its target T1, acetylcholinesterase (AChE). Description: biochemical. The procedure: The enzymatic activity was assessed via a modified colorimetric Ellman′s method. First, 50 µL of Tris-HCl buffer (pH 8), 25µL of a buffer solution of the sample (50 µg/mL), and 25 µL of an acetylcholinesterase (AChE) enzyme solution containing 2.8 U/mL were mixed. A reaction was then initiated via the addition of 125 µL of 3 mM […]. After incubation for 15 min at 25 °C, 25 µL of a solution of iodide acetylthiocholine15 mM was added to a 96-well microplate. […] Inhibition (%) was calculated in the following way: Inhibition (%) = [(A control − A sample)/A control] × 100, where (A sample) is the absorbance of the molecule containing the reaction and (A control) is the absorbance of the reaction control. Tests were carried out in triplicate.

In test [8] the target is T3, xanthine oxidase (XOD). It is filed as biochemical. As to conditions: at 100 µM.
Test [9] concerns OVCAR-3 cells. Description: Cytotoxic activity, MTT assay, OVCAR-3. In kind it is cell-based. Particulars: Homo sapiens, OVCAR-3, 72 h, read-out: IC50 OVCAR-3. As for the experimental part: (§1) The cancer cell lines used in this study were HCT116 (colorectal carcinoma), IGROV1 (ovarian cancer), OVCAR3 (ovarian cancer), and MCF7 (mammary gland/breast cancer). […] Cell lines were maintained in culture and were incubated at 37 °C in an incubator with 5% CO2 in a humidified atmosphere. All tests were established at 80% of confluence, and viability was estimated with a trypan blue exclusion assay.
(§2) The cytotoxic activities of molecules against cancer cell lines were evaluated using an MTT assay. The MTT colorimetric assay was performed using 96-well plates. Cells were seeded in a 96-well plate, at a concentration of 10 × 10^3 cells/well for HCT116 and 12 × 10^3 cells/well for MCF7, IGROV1, and OVAR. Adherent cells were dispatched and incubated at 37 °C overnight in a 5% CO2-enriched atmosphere. […] After that, the medium was removed, and cells were treated with 50 µL of 3-(4,5-dimethylthazolk-2-yl)-2,5-diphenyl tetrazolium bromide (MTT) solution (3 mg/mL in PBS) at 37 °C for 20 to 40 min. To dissolve the […], we added 80 µL of 100% DMSO. Optical density was measured at 540 nm. All tests were established in triplicate. […]

Test [10] in a line: ABTS radical cation scavenging assay. Particulars: for ABTS Assay %: at 100 µM. The procedure: ABTS (2,2′-azinobis-3-ethylbenzothiazoline-6-sulfonate) assay
The radical scavenging capacity of antioxidants for the ABTS radical cation was evaluated following this method: ABTS was prepared by adding 7 mM solution of ABTS at pH 7.4 (5 mM NaH2PO4, 5 mM Na2HPO4, and 154 mM NaCl) with 2.5 mM potassium persulfate. The mixture was stored at room temperature for 16 h in the dark before use and prepared […]. Once diluted with persulfate buffer, the absorbance of the mixture yielded an absorbance value of 0.70 ± 0.05 units at 734 nm. Then, 20 µL of each tested sample was mixed with fresh ABTS solution (180 µL), then the absorbance was measured 6 min after the initial mixing. Ascorbic acid was used as a standard. The capacity of free radical scavenging was expressed as a percentage of the inhibition values. The percentage of inhibition is calculated using the same expression employed in the DPPH assay.

Test [11] deals with HCT116 cells. Description: Cytotoxic activity, MTT assay, HCT116. In kind it is cell-based, human. As to conditions: Homo sapiens, HCT-116, 72 h, read-out: IC50 HCT116, MTT, 72 h. As for the experimental part: as §1, §2
Test [12] has as its target T4, α-amylase (Homo sapiens, UniProt P04746).
T4 sequence (P04746 16-511): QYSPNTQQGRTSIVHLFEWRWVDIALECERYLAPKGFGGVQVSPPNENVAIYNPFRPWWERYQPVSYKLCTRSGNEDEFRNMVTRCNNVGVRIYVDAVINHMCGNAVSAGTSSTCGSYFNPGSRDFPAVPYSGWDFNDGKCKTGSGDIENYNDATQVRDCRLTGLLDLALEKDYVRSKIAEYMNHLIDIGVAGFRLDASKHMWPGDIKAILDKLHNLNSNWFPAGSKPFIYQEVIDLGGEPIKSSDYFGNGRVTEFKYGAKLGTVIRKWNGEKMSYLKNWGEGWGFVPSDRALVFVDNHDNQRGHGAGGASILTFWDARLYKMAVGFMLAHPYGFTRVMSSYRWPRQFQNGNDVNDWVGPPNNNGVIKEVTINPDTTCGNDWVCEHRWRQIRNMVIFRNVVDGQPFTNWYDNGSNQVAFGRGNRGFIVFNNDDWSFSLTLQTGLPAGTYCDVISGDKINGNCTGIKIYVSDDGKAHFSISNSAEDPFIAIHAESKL
The experiment in a line: Anti-α-amylase activity (starch/DNS). As to conditions: for Anti α-Amylase %: at 100 µM.
Experimental: The α-amylase inhibitory activity (%) value was defined as the percentage decrease in the maltose production rate over the control. […] After 15 min, this mixture was removed from the water bath and diluted with 900 µL of distilled water. The anti-α-amylase activity was determined by measuring the absorbance at 540 nm. Blank incubations were determined as the absorbance produced by samples where the enzyme was replaced with a buffer solution. […] The IC50 values were calculated from the mean values of the percentage of α--amylase inhibition data, determined in triplicate.

The target in test [13] is T2, superoxide dismutase (SOD). In kind it is biochemical. Particulars: at 100 µM.

Where two headings read alike, the source gives them in different places.

T3 sequence (P47989 whole entry, species assumed): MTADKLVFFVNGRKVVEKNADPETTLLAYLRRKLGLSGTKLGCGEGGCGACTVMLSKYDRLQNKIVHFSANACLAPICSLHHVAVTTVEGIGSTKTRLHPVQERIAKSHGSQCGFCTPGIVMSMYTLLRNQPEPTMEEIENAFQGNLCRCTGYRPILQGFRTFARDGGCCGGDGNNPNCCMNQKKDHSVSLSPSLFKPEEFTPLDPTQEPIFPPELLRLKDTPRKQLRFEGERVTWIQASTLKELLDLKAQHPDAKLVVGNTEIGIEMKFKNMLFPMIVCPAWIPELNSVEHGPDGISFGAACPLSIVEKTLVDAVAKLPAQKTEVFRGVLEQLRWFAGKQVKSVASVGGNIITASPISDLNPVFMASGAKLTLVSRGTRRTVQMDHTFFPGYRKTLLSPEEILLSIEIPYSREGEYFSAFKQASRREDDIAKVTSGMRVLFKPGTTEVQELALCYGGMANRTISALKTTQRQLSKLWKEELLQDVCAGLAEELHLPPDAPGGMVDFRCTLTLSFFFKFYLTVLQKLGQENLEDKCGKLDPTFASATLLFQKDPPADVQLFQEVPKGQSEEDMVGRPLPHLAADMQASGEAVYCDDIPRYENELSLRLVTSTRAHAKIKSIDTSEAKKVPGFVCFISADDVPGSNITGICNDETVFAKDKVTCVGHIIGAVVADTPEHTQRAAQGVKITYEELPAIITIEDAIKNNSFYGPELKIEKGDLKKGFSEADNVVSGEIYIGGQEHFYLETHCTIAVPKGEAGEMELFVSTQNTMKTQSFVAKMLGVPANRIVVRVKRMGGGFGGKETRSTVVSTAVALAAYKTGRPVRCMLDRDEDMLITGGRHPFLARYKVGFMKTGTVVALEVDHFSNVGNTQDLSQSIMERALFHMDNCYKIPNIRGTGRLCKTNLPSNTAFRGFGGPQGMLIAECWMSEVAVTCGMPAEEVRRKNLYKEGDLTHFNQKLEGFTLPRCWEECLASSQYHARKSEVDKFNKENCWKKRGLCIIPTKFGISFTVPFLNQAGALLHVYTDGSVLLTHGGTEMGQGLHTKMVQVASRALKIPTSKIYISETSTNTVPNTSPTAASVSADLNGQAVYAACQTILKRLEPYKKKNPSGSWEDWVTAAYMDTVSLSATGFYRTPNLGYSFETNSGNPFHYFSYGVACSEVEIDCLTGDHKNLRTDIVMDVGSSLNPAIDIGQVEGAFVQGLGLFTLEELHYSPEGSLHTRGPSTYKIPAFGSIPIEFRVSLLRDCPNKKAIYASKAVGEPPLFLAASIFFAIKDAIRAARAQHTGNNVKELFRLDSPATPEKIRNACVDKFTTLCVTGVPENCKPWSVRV
T1 sequence (P22303 32-614, species assumed): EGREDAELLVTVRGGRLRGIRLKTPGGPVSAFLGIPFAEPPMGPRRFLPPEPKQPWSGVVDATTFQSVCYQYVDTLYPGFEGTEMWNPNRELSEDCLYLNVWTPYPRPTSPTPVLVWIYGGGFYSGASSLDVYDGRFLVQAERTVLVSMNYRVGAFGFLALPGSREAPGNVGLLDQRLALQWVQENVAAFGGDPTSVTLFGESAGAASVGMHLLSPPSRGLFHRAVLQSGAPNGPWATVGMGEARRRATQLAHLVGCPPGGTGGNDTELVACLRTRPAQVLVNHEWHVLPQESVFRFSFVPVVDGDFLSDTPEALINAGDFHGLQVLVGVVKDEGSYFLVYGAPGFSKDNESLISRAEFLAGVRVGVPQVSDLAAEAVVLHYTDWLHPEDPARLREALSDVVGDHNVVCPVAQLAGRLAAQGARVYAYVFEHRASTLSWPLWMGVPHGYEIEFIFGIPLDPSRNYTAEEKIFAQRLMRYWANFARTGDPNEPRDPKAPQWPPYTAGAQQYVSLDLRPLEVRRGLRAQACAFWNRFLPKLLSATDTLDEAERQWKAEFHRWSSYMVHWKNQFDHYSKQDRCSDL

Take `COc1cc(O)c2c(=O)cc(-c3ccc(O)cc3)oc2c1` [Molecule M12, 4′,5-dihydroxy-7-methoxyflavone]: the IC50 in test [1] is more than 50 µM; in test [3], more than 100 µM; in test [4], more than 100 µM; in test [5], 44.7 ± 1.2 µM; in test [6], 1.2 ± 0.1 µM; in test [7], more than 50 µM. Moreover, the IC50 in [9] is 47 ± 1.4 µM; in test [10], more than 100 µM; in test [11], 38.5 ± 1.2 µM; in test [12] it was 9 ± 0.1 µM. For the same compound, the “Anti ACHE %” value in test [2] came to 51.0 ± 0.3%. Moreover, the “Anti XOD %” value in [8] was 58.2 ± 3.1%. Further, the “ABTS Assay %” value in [10] was found to be 30.3 ± 0.6%. Moreover, the “Anti α-Amylase %” value in test [12] turned out to be 111.7 ± 0.8%. Moreover, the “Anti SOD %” value in test [13] came out at 42.1 ± 5.3%.
On to `COc1ccc(-c2cc(=O)c3c(O)cc(O[C@@H]4O[C@H](CO[C@@H]5O[C@@H](C)[C@H](O)[C@@H](O)[C@H]5O)[C@@H](O)[C@H](O)[C@H]4O)cc3o2)cc1O` [Molecule M19, 3′, 5,7-trihydroxy-4′-methoxyflavone 7-rutinoside], for which the IC50 was more than 50 µM in test [1]; more than 100 µM in [3]; more than 50 µM in test [4]; 40.1 ± 0.9 µM in test [5]; more than 100 µM in test [6]; more than 100 µM in test [7]. Moreover, the IC50 in test [9] was more than 50 µM; in [10], more than 50 µM; in test [11], more than 50 µM; in test [12], 3.7 ± 0.3 µM. Besides, the “Anti ACHE %” value in test [2] was 37.7 ± 4.6%. In addition, in test [8], the “Anti XOD %” value is listed as 45.3 ± 3.2%. The “Anti α-Amylase %” value in test [12] amounted to 60.6 ± 4.8%. The “Anti SOD %” value in test [13] came out at 57.8 ± 2.4%.
`O=c1cc(-c2cccc(O)c2)oc2c1ccc1ccccc12` [Molecule M10, 3′-hydroxy-a-naphthoflavone]: the IC50 in test [1] was more than 50 µM; in test [3], more than 100 µM; in test [4], more than 100 µM; in [5], more than 50 µM; in [6], more than 50 µM; in test [7] (read-out: Anti ACHE IC50), more than 50 µM. Further, the IC50 in [9] was more than 50 µM; in test [10], more than 100 µM; in [11], more than 50 µM; in [12], 2.3 ± 0.1 µM. Besides, the “Anti ACHE %” value in test [2] is reported as 54.7 ± 1.9%. The “Anti XOD %” value in test [8] is given as 58.8 ± 0.3%. Further, in test [10], the “ABTS Assay %” value was 11.0 ± 1.0%. The “Anti α-Amylase %” value in test [12] came to 69.4 ± 1.6%. In test [13], the “Anti SOD %” value amounted to 39.4 ± 1.9%.
On to `CC1OC(Oc2c(-c3cc(O)c(O)c(O)c3)oc3cc(O)cc(O)c3c2=O)C(O)C(O)C1O` (stereo not shown) [Molecule M20, myricitrin dihydrate], for which the IC50 is more than 50 µM in test [1]; more than 100 µM in test [3]; more than 100 µM in test [4]; more than 50 µM in test [5]; more than 100 µM in test [6]; more than 50 µM in test [7]. In addition, the IC50 in test [9] is more than 50 µM; in test [10] it was more than 100 µM; in [11], more than 50 µM; in test [12] it was more than 100 µM. Besides, the “Anti ACHE %” value in test [2] was 51.8 ± 3.5%. In addition, in test [8], the “Anti XOD %” value is listed as 30.9 ± 2.5%. Further, the “ABTS Assay %” value in [10] is given as 20.3 ± 3.2%. Also, the “Anti SOD %” value in [13] was found to be 42.4 ± 1.1%.
